Earlier results in patent US20070292523A1, “Dihydropyrimidine Formulations” (priority 2004, published 2007).

How the values were obtained:
cytochrome P450 = settings: nimodipine with cimetidine (Drugs Aging, 1995, 6, 229-42)
[1] = system: presystemic oxidative metabolism of nimodipine; settings: nimodipine and valproic acid administered in combination (Drugs Aging, 1995, 6, 229-42)

In the case of `CN/C(=N/CCSCc1nc[nH]c1C)NC#N` [cimetidine], the bioavailability of nimodipine (cytochrome P450) is listed as “approximate doubling of the bioavailability of nimodipine”.
For `COCCOC(=O)C1=C(C)NC(C)=C(C(=O)OC(C)C)C1c1cccc([N+](=O)[O-])c1` (stereo not drawn) [nimodipine, Nimodipine], the solubility in water is listed as “practically insoluble in water”.
In the case of `CCCC(CCC)C(=O)O` [valproic acid], the “plasma concentrations of nimodipine” value [1] is given as “increased plasma concentrations of nimodipine”.
